Assay results reported in patent US11999727B2 (Tango Therapeutics, Inc., priority 2020, dated 2024).
pIC50: −log10 of the molar value. Like-named read-outs stand apart in the source and are kept apart here.

How the values were obtained:
[1] = system: HAP1 MTAP-deleted cell line; assay: SDMA in-cell western assay, HAP1 MTAP-deleted; format: cell-based; conditions: for pIC50: Homo sapiens; for MTAP intact/deleted ratio: SDMA in-cell western
How it was run: (§1)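 Readout: in-cell western detection of SDMA. Cells: HAP1 expressing endogenous MTAP and an MTAP-null HAP1 counterpart. Output: IC50.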

[2] = system: HAP1 MTAP-intact cell line; assay: SDMA in-cell western assay, HAP1 MTAP-intact; format: cell-based; conditions: Homo sapiens
How it was run: as §1

[3] = molecular target: T1, PRMT5 (Homo sapiens, UniProt O14744); assay: PRMT5 biochemical IC50 assay with no cofactor; conditions: PRMT5, no cofactor
T1 construct: purchased Viva (custom protein)
T1 sequence (O14744 whole entry): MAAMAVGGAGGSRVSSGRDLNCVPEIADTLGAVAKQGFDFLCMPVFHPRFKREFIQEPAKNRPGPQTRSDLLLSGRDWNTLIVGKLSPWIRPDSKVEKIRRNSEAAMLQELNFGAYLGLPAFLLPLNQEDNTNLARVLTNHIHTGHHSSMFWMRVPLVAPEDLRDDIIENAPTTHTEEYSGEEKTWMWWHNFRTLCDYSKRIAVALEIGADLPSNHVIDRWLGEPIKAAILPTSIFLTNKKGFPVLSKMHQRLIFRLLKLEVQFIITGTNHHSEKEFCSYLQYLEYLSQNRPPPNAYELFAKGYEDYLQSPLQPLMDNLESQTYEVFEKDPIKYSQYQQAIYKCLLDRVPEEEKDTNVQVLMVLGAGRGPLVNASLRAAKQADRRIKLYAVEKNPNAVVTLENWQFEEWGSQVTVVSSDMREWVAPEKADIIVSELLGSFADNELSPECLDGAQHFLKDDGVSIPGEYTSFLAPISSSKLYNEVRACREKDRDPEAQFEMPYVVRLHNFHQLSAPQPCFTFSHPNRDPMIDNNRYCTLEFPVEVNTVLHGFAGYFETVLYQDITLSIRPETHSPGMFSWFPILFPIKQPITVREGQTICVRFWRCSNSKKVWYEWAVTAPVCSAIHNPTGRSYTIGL
T1 sequence (Q9BQA1 whole entry partner): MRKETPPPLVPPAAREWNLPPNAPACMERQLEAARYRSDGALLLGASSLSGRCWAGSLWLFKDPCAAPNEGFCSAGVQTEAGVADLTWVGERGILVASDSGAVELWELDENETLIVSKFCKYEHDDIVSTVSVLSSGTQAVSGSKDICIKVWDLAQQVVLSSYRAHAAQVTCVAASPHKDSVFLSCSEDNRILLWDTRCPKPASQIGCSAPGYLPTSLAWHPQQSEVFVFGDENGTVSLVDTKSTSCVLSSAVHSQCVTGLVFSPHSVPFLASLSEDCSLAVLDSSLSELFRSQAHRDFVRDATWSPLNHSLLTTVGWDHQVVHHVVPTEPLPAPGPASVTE
Source text: Table 1 indicates IC50 values (μM) against PRMT5 for exemplary compounds in the presence of SAM as cofactor, with no cofactor, and with MTA as cofactor, respectively (columns 4-6). […] Ki values can be calculated from the IC50 values as described in the Examples section. As detailed in the Examples section, for the assay performed in the presence of SAM, IC50=Ki×1.5 (Ki=IC50/1.5).

[4] = system: HAP1 MTAP-deleted cell line; assay: Viability assay, MTAP-deleted cell line; format: cell-based; conditions: Homo sapiens
Source text: Table 1 additionally indicates IC50 values in a viability assay for the MTAP-deleted cell line (column 10), indicating the effect of treatment with compound on cell survival.

[5] = molecular target: T1, PRMT5; assay: PRMT5 biochemical IC50 assay with MTA as cofactor; conditions: PRMT5, MTA as cofactor; read-out: MTA IC50
[6] = molecular target: T1, PRMT5; assay: PRMT5 biochemical IC50 assay with SAM as cofactor; conditions: PRMT5, SAM as cofactor; read-out: SAM IC50
[7] = HAP1, SDMA in-cell western, HAP1 MTAP-deleted, read-out: HAP 1 MTAP deleted IC50
[8] = IC50 ratio HAP1 MTAP-intact / HAP1 MTAP-deleted
[9] = HAP1, SDMA in-cell western, HAP1 MTAP-intact, read-out: MTAP HAP1 intact IC50
[10] = read-out: No Cofactor/ rel IC50
[11] = HAP1, viability assay, MTAP-deleted cell line, read-out: HAP1 MTAP deleted viability
[12] = HAP1, viability, HAP1 MTAP-deleted cell line, read-out: HAP1 MTAP deleted viability
[13] = HAP1, viability IC50, MTAP-deleted cell line, read-out: HAP1 MTAP deleted viability
[14] = HAP1, SDMA in-cell western, HAP1 MTAP-deleted, read-out: HAP1 MTAP deleted IC50
[15] = IC50 ratio HAP1 MTAP-intact vs HAP1 MTAP-deleted
[16] = HAP1, viability assay, HAP1 MTAP-deleted, read-out: HAP1 MTAP deleted viability

Row | Compound | pIC50 [1, 7] | MTAP intact/deleted ratio [1, 8] | pIC50 [2, 9] | pIC50 [3, 10] | pIC50 [4, 11] | pIC50 [5] | pIC50 [6] | pIC50 [4, 12] | pIC50 ([3]; read-out: No Cofactor/rel IC50) | pIC50 [4, 13] | pIC50 [1, 14] | MTAP intact/deleted ratio [1, 15] | pIC50 [4, 16] | pIC50 ([1]; HAP1, read-out: HAP1 MTAP deleted IC50) | pIC50 ([2]; HAP1, read-out: MTAP HAP1 intact IC50) | pIC50 ([4]; HAP1, read-out: HAP1 MTAP deleted viability)
1 | CC[C@@H]1CC[C@@H](c2ccccc2)N(C(=O)C(=O)Nc2cncc(C)c2)C1 (single isomer, unassigned) [Compound 17] | < 6.00 | B (an IC50 ratio greater than or equal to 3 fold but lower than 10 fold) | < 6.00 | < 6.30 | < 5.00 | 6.30 to 7.30 | < 6.30 | – | – | – | – | – | – | – | – | –
2 | CCc1cc(NC(=O)C(=O)N2C[C@@H](C)CC[C@@H]2c2ccc3sc(C4CCOC4)nc3c2)cnc1N (stereo partly drawn) [Compound 1242, N-(6-amino-5-ethylpyridin-3-yl)-2-((2R,5S)-5-methyl-2-(2-(tetrahydrofuran-3-yl)benzo[d]thiazol-5-yl)piperidin-1-yl)-2-oxoacetamide] | > 7.00 | A (an IC50 ratio greater than or equal to 10 fold) | 6.00 to 7.00 | > 7.30 | – | > 7.30 | 6.30 to 7.30 | > 6.00 | – | – | – | – | – | – | – | –
3 | Cc1cc(NC(=O)C(=O)N2C[C@@H](C)CC[C@@H]2c2ccc(NS(C)(=O)=O)cc2)cnc1C (single isomer, unassigned) [Compound 621] | > 7.00 | A (an IC50 ratio greater than or equal to 10 fold) | 6.00 to 7.00 | – | – | > 7.30 | 6.30 to 7.30 | – | > 7.30 | 5.00 to 6.00 | – | – | – | – | – | –
4 | CCc1cc(NC(=O)C(=O)N2C[C@@H](C)CC[C@@H]2c2ccc3sc(C4(F)CCN(C)CC4)nc3c2)cnc1N [Compound 1160, N-(6-amino-5-ethylpyridin-3-yl)-2-((2R,5S)-2-(2-(4-fluoro-1-methylpiperidin-4-yl)benzo[d]thiazol-5-yl)-5-methylpiperidin-1-yl)-2-oxoacetamide] | – | – | > 7.00 | – | > 6.00 | > 7.30 | > 7.30 | – | > 7.30 | – | > 7.00 | A (an IC50 ratio greater than or equal to 10 fold) | – | – | – | –
5 | CNc1nc2cc([C@@H]3CC[C@@H](C)CN3C(=O)C(=O)Nc3cnc(C)c(C)c3)ccc2s1 (racemic) [Compound 828, N-(5,6-dimethyl-3-pyridyl)-2-[(2R,5S)-5-methyl-2-[2-(methylamino)-1,3-benzothiazol-5-yl]-1-piperidyl]-2-oxo-acetamide] | – | A (an IC50 ratio greater than or equal to 10 fold) | < 6.00 | – | – | 6.30 to 7.30 | 6.30 to 7.30 | – | 6.30 to 7.30 | – | > 7.00 | – | 5.00 to 6.00 | – | – | –
6 | Cc1cc(NC(=O)C(=O)N2C[C@@H](C)CC[C@@H]2c2ccn(-c3cc[nH]n3)n2)cnc1N (single isomer, unassigned) [Compound 789] | – | B (an IC50 ratio greater than or equal to 3 fold but lower than 10 fold) | < 6.00 | – | – | < 6.30 | < 6.30 | – | < 6.30 | – | < 6.00 | – | < 5.00 | – | – | –
7 | Cc1cc(NC(=O)C(=O)N2C[C@@H](C)CC[C@@H]2c2ccc(F)c(F)c2)cnc1N (single isomer, unassigned) [Compound 472] | – | C (an IC50 ratio of less than 3 fold) | < 6.00 | – | < 5.00 | < 6.30 | < 6.30 | – | < 6.30 | – | < 6.00 | – | – | – | – | –
8 | NC(=O)c1cncc(NC(=O)C(=O)N2C[C@H]3CC[C@H](C3)[C@H]2c2ccccc2)c1 (single isomer, unassigned) [Compound 194] | – | C (an IC50 ratio of less than 3 fold) | < 6.00 | – | < 5.00 | < 6.30 | < 6.30 | – | < 6.30 | – | < 6.00 | – | – | – | – | –
9 | CNC(=O)c1ccc([C@H]2CC[C@H](C)CN2C(=O)C(=O)Nc2cnc(N)c(C)c2)s1 (single isomer, unassigned) [Compound 859] | – | A (an IC50 ratio greater than or equal to 10 fold) | 6.00 to 7.00 | – | – | > 7.30 | 6.30 to 7.30 | – | > 7.30 | – | > 7.00 | – | > 6.00 | – | – | –
10 | Cc1cc(NC(=O)C(=O)N2C[C@H](C)CC[C@H]2c2ccc(C(F)(F)F)c(Cl)c2)cnc1N (single isomer, unassigned) [Compound 689] | < 6.00 | C (an IC50 ratio of less than 3 fold) | < 6.00 | – | – | < 6.30 | < 6.30 | – | < 6.30 | < 5.00 | – | – | – | – | – | –
11 | Cc1cc(NC(=O)C(=O)N2C[C@H](C)CC[C@H]2c2cc3cn[nH]c3s2)cnc1N (racemic) [Compound 815, N-(6-amino-5-methylpyridin-3-yl)-2-(5-methyl-2-(1H-thieno[2,3-c]pyrazol-5-yl)piperidin-1-yl)-2-oxoacetamide] | – | A* (an IC50 ratio greater than or equal to 10 fold) | 6.00 to 7.00 | – | – | > 7.30 | 6.30 to 7.30 | – | 6.30 to 7.30 | – | > 7.00 | – | > 6.00 | – | – | –
12 | C[C@@H]1CC[C@@H](c2cnc3ccccc3c2)N(C(=O)C(=O)Nc2cncc(C(N)=O)c2)C1 (racemic) [Compound 257, rac-5-{2-[(2R,5S)-5-Methyl-2-(quinolin-3-yl)piperidin-1-yl]-2-oxoacetamido}pyridine-3-carboxamide] | – | B (an IC50 ratio greater than or equal to 3 fold but lower than 10 fold) | < 6.00 | – | < 5.00 | 6.30 to 7.30 | < 6.30 | – | < 6.30 | – | < 6.00 | – | – | – | – | –
13 | Cc1cc(NC(=O)C(=O)N2C[C@H](C)CC[C@H]2C2CCN(C)CC2)cnc1N (racemic) [Compound 614, N-(6-amino-5-methyl-3-pyridyl)-2-[(2R,5S)-5-methyl-2-(1-methyl-4-piperidyl)-1-piperidyl]-2-oxo-acetamide] | < 6.00 | C (an IC50 ratio of less than 3 fold) | < 6.00 | – | – | < 6.30 | < 6.30 | – | < 6.30 | < 5.00 | – | – | – | – | – | –
14 | Cc1cc(NC(=O)C(=O)N2C[C@H](C)CC[C@H]2c2cncnc2)cnc1N (racemic) [Compound 109, rac-N-(6-amino-5-methylpyridin-3-yl)-2-((2R,5S)-5-methyl-2-(pyrimidin-5-yl)piperidin-1-yl)-2-oxoacetamide] | < 6.00 | B (an IC50 ratio greater than or equal to 3 fold but lower than 10 fold) | < 6.00 | < 6.30 | < 5.00 | 6.30 to 7.30 | 6.30 to 7.30 | – | – | – | – | – | – | – | – | –
15 | C[C@@H]1CC[C@@H](c2ccc3c(c2)CCCO3)N(C(=O)C(=O)Nc2cncc(C(N)=O)c2)C1 (racemic) [Compound 341, rac-5-{2-[(2R,5S)-2-(3,4-Dihydro-2H-1-benzopyran-6-yl)-5-methylpiperidin-1-yl]-2-oxoacetamido}pyridine-3-carboxamide] | – | A (an IC50 ratio greater than or equal to 10 fold) | < 6.00 | – | 5.00 to 6.00 | 6.30 to 7.30 | 6.30 to 7.30 | – | 6.30 to 7.30 | – | > 7.00 | – | – | – | – | –
16 | C[C@H]1CC[C@H](c2ccc3sncc3c2)N(C(=O)C(=O)Nc2cnc(N)c(C3CC3)c2)C1 (single isomer, unassigned) [Compound 1153] | – | – | – | – | – | > 7.30 | 6.30 to 7.30 | – | > 7.30 | – | – | A (an IC50 ratio greater than or equal to 10 fold) | – | > 7.00 | 6.00 to 7.00 | > 6.00
17 | C[C@H]1CC[C@H](c2ccc3[nH]c(=O)ccc3c2)N(C(=O)C(=O)Nc2cncc(C(N)=O)c2)C1 (single isomer, unassigned) [Compound 809] | – | A (an IC50 ratio greater than or equal to 10 fold) | < 6.00 | – | – | > 7.30 | 6.30 to 7.30 | – | > 7.30 | – | 6.00 to 7.00 | – | 5.00 to 6.00 | – | – | –
18 | Cc1cc(NC(=O)C(=O)N2C[C@@H](C)CC[C@@H]2c2ccc3sc(C4CC(C)(C)N(C)C(C)(C)C4)nc3c2)cnc1C [Compound 1315, N-(5,6-dimethylpyridin-3-yl)-2-((2R,5S)-5-methyl-2-(2-(1,2,2,6,6-pentamethylpiperidin-4-yl)benzo[d]thiazol-5-yl)piperidin-1-yl)-2-oxoacetamide] | > 7.00 | A (an IC50 ratio greater than or equal to 10 fold) | 6.00 to 7.00 | > 7.30 | – | > 7.30 | > 7.30 | > 6.00 | – | – | – | – | – | – | – | –
